The values below come from patent US5241087A (priority 1992, dated 1993).

The subject of one data set is oxynitrilase enzyme from sorghum.
Test: not given
As to conditions: 6 Phytochemistry 473 (1967); cited from earlier work.
Turning to `N#CC(O)c1ccc(O)cc1` (stereo not drawn) [p-hydroxybenzaldehyde cyanohydrin], the “specificity of sorghum oxynitrilase for dehydrocyanation of substrate” value was “appears to be specific”.

Test system in another data set: not listed separately
Nature of the data set: Permeability through supported-gas membrane (microporous polypropylene hollow fibers, system of FIG. 1). The following applies: supported-gas membrane system of FIG. 1.
Turning to `O=Cc1ccccc1` [benzaldehyde], the “average permeability relative to the permeability of benzaldehyde cyanohydrin” value is on record as “roughly 700 times”.

The next data set deals with (R)-oxynitrilase. Nature of the data set: Relative rate of dehydrocyanation of cyanohydrins by soluble (R)-oxynitrilase (initial rate studies, absorbance). Format: biochemical. The following applies: (R)-oxynitrilase with 0.21 mM solution of cyanohydrin; relative to benzaldehyde cyanohydrin = 1.0. Here is the method: The following standardized assay was utilized to measure the activity of oxynitrilase set forth in the Examples which follow. A solution of enzyme was prepared in 0.1M (pH 5.5) citrate buffer. A 3-ml sample of enzyme solution was combined with 30 microliters of 0.21M benzaldehyde cyanohydrin and the rate of increase in absorbance at 250 nm recorded. Then, the same procedure was followed with a 3-ml sample of 0.1M (pH 5.5) citrate buffer to obtain the background, non-enzymatic, reaction. The activity in units/ml was calculated by subtracting the slope of the non-enzymatic reaction from the slope of the enzymatic reaction and converting the absorbance change with time to concentration change with time using a molar extinction coefficient of 13,200 M^-1 cm^-1.
Relative rates of dehydrocyanation of different cyanohydrins subjected to the action of the soluble catalyst (R)-oxynitrilase were determined from initial rate studies. A solution of (R)-oxynitrilase was combined with a 0.21 mM solution of cyanohydrin and the rate of increase of absorbance at the wavelength corresponding to the absorption maxima was monitored as described above in connection with the measurement of catalyst activity. The measured activity was calculated using the appropriate extinction coefficient for the corresponding aldehyde.
As for `Cc1ccc(C(O)C#N)o1` (stereo not drawn) [5-Methylfurfural cyanohydrin], the “Relative Rate (dehydrocyanation)” value was 2.8. For `N#CC(O)c1ccccc1` (stereo not drawn) [Benzaldehyde cyanohydrin], the “Relative Rate (dehydrocyanation)” value was 1.0. Still for that read-out and setting: next, `N#CC(O)C=Cc1ccccc1` (stereo not drawn) [Cinnamaldehyde cyanohydrin]: 0.05; `CC=CC(O)C#N` (stereo not drawn) [Crotonaldehyde cyanohydrin]: 0.90. Take `N#CC(O)c1ccco1` (stereo not drawn) [Furfural cyanohydrin]: the “Relative Rate (dehydrocyanation)” value is given as 2.5. With `N#CC(O)c1ccc2c(c1)OCO2` (stereo not drawn) [Piperonal cyanohydrin], the “Relative Rate (dehydrocyanation)” value stood at 2.1. On the same count and under the same terms, the result for `COc1cccc(C(O)C#N)c1` (stereo not drawn) [m-Anisaldehyde cyanohydrin] reads 0.19; that for `COc1ccc(C(O)C#N)cc1` (stereo not drawn) [p-Anisaldehyde cyanohydrin], 0.17. The same measure, in the same setting: the result for `CCc1ccc(C(O)C#N)cc1` (stereo not drawn) [p-Ethylbenzaldehyde cyanohydrin] reads 0.13. `Cc1ccc(C(O)C#N)cc1` (stereo not drawn) [p-Tolualdehyde cyanohydrin]: the “Relative Rate (dehydrocyanation)” value is 0.45.
